Where “and” joins values, the source holds several entries; their conditions need not be identical. Equal values may be shown once.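 Briefly, cells in 96-well plates were exposed to five compound concentrations for 48 h, and endpoints were estimated by linear interpolation. GI50 is the concentration that inhibits growth by half. TGI is the concentration that stops growth completely.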
Experiments:
Assay in all cases: NCI-60 cell line screen, 48 h
[1] = test system: ACHN renal
[2] = test system: DU-145 prostate
[3] = test system: HS 578T breast
[4] = test system: NCI-H23 lung
[5] = test system: NCI-H460 lung
[6] = test system: NCI-H522 lung
[7] = test system: RXF 393 renal
[8] = test system: SF-268 CNS
[9] = test system: SF-295 CNS
[10] = test system: SN12C renal

| Structure (SMILES) | GI50 [1] | TGI [1] | GI50 [2] | TGI [2] | GI50 [3] | TGI [3] | GI50 [4] | TGI [4] | GI50 [5] | TGI [5] | GI50 [6] | TGI [6] | GI50 [7] | TGI [7] | GI50 [8] | TGI [8] | GI50 [9] | TGI [9] | GI50 [10] | TGI [10] |
| --- | --- | --- | --- | --- | --- | --- | --- | --- | --- | --- | --- | --- | --- | --- | --- | --- | --- | --- | --- | --- |
| Cc1cc(O)c(C2=NN(c3ccc(S(N)(=O)=O)cc3)C(/C=C/c3ccccc3)C2)cc1Cl (centres undefined) | 5.27 µM | 21.9 µM | 14.1 µM | 38.6 µM | 12.3 µM | 49.7 µM | 1.68 µM | 12.5 µM | 4.03 µM | 17 µM | 4.62 µM | 19.4 µM | 6.69 µM | 20.2 µM | 5.63 µM | 19.5 µM | 2.36 µM | 11.9 µM | 11.1 µM | 25.6 µM |
| CCCCCCNCc1cc(C(C)(C)C)cc(CNCCCCCC)c1O | 1.62 µM | 2.97 µM | 1.8 µM | 3.21 µM | 1.72 µM | 4.03 µM | 1.71 µM | 3.29 µM | 1.81 µM | 3.34 µM | 1.65 µM | 3.13 µM | 1.62 µM | 2.99 µM | 1.7 µM | 3.32 µM | 1.64 µM | 3.16 µM | 1.7 µM | 3.15 µM |
| COC(=O)C(C(=O)OC)C(Br)C(Br)C(Br)c1ccccc1 (centres undefined) | 2.8 µM | 7.16 µM | 10.6 µM | 23 µM | 18.4 µM | 62.8 µM |  |  | 19.9 µM | 37.2 µM | 1.69 µM | 3.33 µM | 4.17 µM | 15.9 µM | 14.6 µM | 29.6 µM | 18.9 µM | 37.3 µM | 14 µM | 27.3 µM |
| CN1CCN(c2nc(-c3csc(-c4cccs4)n3)cc3ccccc23)CC1 | 1.8 µM | 3.25 µM | 1.8 µM | 3.34 µM | 1.7 µM | 4.34 µM | 1.93 µM | 3.92 µM | 1.78 µM | 3.25 µM | 1.94 µM | 3.95 µM | 1.78 µM | 3.9 µM | 1.82 µM | 3.6 µM | 1.82 µM | 3.39 µM | 1.81 µM | 3.47 µM |
| COc1ccc(C(=O)c2sc3nc(-c4cccs4)ccc3c2N)cc1OC | 9.26 µM | > 100 µM | 16 µM | > 100 µM | 6.27 µM | > 100 µM |  |  | 3.88 µM | > 100 µM | 2.86 µM | 95.8 µM | 9.98 µM | > 100 µM | 8.33 µM | > 100 µM | 3.07 µM | 18.2 µM | 11 µM | > 100 µM |
| CC(=O)/C=C/c1ccc(OCc2ccc(Cl)cc2)cc1 | > 1000 µM | > 1000 µM | 636 µM | > 1000 µM | > 1000 µM | > 1000 µM | 720 µM | > 1000 µM | 529 µM | > 1000 µM | 295 µM | > 1000 µM | 568 µM | > 1000 µM | 670 µM | > 1000 µM | 679 µM | > 1000 µM | 893 µM | > 1000 µM |
| CN(CCCCCl)P(=O)(OCc1ccc([N+](=O)[O-])o1)OCC1OC(n2cnc([N+](=O)[O-])c2N)C(O)C1O (centres undefined) | > 100 µM | > 100 µM | > 100 µM | > 100 µM | > 100 µM | > 100 µM | > 100 µM | > 100 µM | > 100 µM | > 100 µM | > 100 µM | > 100 µM | > 100 µM | > 100 µM | > 100 µM | > 100 µM | > 100 µM | > 100 µM | > 100 µM | > 100 µM |
| CC1OC(CC(=O)O)CC2=C1C(=O)c1c(O)cccc1C2=O (centres undefined) |  | 0.658 µM |  | 2.5 µM |  | 0.452 µM |  | 1.51 µM |  | 3.58 µM |  | < 0.0251 µM |  | 0.103 µM |  | 1.33 µM |  | 2.51 µM |  | 0.716 µM |
| CCc1nc(N)nc(N)c1-c1ccc(Cl)c(N=[N+]=[N-])c1 | 2.33 µM and 4.75 µM | > 100 µM |  | > 100 µM |  | 93.1 µM and > 100 µM |  | > 93.8 µM and 80.9 µM | 0.463 µM and 1.23 µM | > 81.7 µM |  | 42.5 µM and 29.4 µM | 2.86 µM and 11.7 µM | 42.3 µM and 73.6 µM |  | > 100 µM |  | > 100 µM and 82 µM |  | > 100 µM |
| NC1(Cc2ccc(Cl)cc2)CCN(c2ncnc3[nH]ccc23)CC1 | 5.58 µM | 32.1 µM | 9.37 µM | 25.1 µM | 2.17 µM | 14.6 µM | 4.55 µM | 21 µM | 2.31 µM | 13.3 µM | 12.6 µM | 27.7 µM | 1.41 µM | 7.12 µM | 6.66 µM | 21.3 µM | 1.48 µM | 13.5 µM | 4.4 µM | 28.8 µM |
| CC(C)(C)OC(=O)NCc1cccc(N=C=S)c1 | 21.1 µM | 67.6 µM | 22.7 µM | 59.2 µM | 24.6 µM | > 84.8 µM | 18.5 µM | 47.6 µM | 20.5 µM | 46.1 µM | 17.4 µM | 44.1 µM | 16.8 µM | 36.1 µM | 21 µM | 64.9 µM | 17.5 µM | 40.9 µM | 22.1 µM | 60.3 µM |
| C=Cn1c([N+](=O)[O-])cnc1/C=C/c1ccc(C(=O)OCCN2CCOCC2)cc1 |  | > 100 µM |  | > 100 µM |  | > 100 µM |  | > 100 µM |  | > 100 µM |  | > 100 µM |  | > 100 µM |  | > 100 µM |  | > 100 µM |  | > 100 µM |
| O=C1N(Cc2ccccc2Cl)c2ccccc2C12NN=C(c1cccc(Cl)c1)S2 (centres undefined) | 1.81 µM | 3.43 µM | 1.7 µM | 3.26 µM | 2.4 µM | 5.85 µM | 1.63 µM | 3.67 µM | 1.42 µM | 3.32 µM | 1.72 µM | 3.48 µM | 1.76 µM | 3.4 µM | 1.59 µM | 3.26 µM | 1.71 µM | 3.17 µM | 1.91 µM | 3.92 µM |
| NC(=O)c1sc(-n2cnc3cc(C(F)(F)F)ccc32)cc1OCc1ccccc1Br | > 22.4 µM | > 25 µM | > 25 µM | > 25 µM | 12.4 µM | > 25 µM | > 25 µM | > 25 µM | > 19.6 µM | > 25 µM | > 20 µM | > 25 µM | > 12.9 µM | > 25 µM | > 17.5 µM | > 25 µM | > 25 µM | > 25 µM | 24.6 µM | > 25 µM |
| COc1ccc(CCN2CCC(CN(C)Cc3cnn(-c4ccccc4)c3)CC2)cc1 | 10.9 µM | 33 µM | 37 µM | > 100 µM | 13.5 µM | 32.6 µM | 29.8 µM | > 100 µM | 18.7 µM | 39.2 µM | 4.54 µM | 19 µM | 7.74 µM | 24.1 µM | 14.2 µM | 34.7 µM | 12.1 µM | 25.2 µM | 21.3 µM | > 100 µM |
| COc1ccc(-c2c3c(nc4n[nH]c(-c5ccc(Cl)cc5)c24)-c2ccccc2C(=O)C3=O)cc1 | 1.46 µM | 3.3 µM | 1.59 µM | 2.96 µM | 1.85 µM | 8.14 µM | 1.64 µM | 4.74 µM | 1.52 µM | 3.24 µM | 1.43 µM | 2.99 µM | 1.5 µM | 3.1 µM | 1.4 µM | 2.99 µM | 1.9 µM | 4.32 µM | 1.66 µM | 3.82 µM |
| COc1cc2c(c(OC)c1OC)-c1ccc(N=NC(N)=S)c(=O)cc1[C@@H](NC(C)=O)CC2 | 5.08 µM | > 100 µM | 0.655 µM | 4.66 µM | 0.294 µM |  | 0.347 µM | > 100 µM | 0.418 µM | 12.2 µM | 0.354 µM |  | 0.937 µM | > 100 µM | 0.716 µM | > 100 µM | 1.45 µM | > 100 µM | 1.52 µM | > 100 µM |
| CC1=Nc2c([nH]c(=S)[nH]c2=O)NC(c2c(Cl)cccc2Cl)C1 (centres undefined) |  | 11 µM |  | 3.51 µM |  | 17.1 µM |  | 7.4 µM |  | 5.64 µM |  | 7.33 µM |  | 9.91 µM |  | 3.96 µM |  | 4.41 µM |  | 3.09 µM |
| O=C(O)c1c(Br)c(Br)c(Br)c(Br)c1C1c2ccc(O)cc2Oc2cc(O)ccc21 |  | > 100 µM |  | > 100 µM |  | > 100 µM |  |  |  | > 100 µM |  | > 100 µM |  | > 100 µM |  | > 100 µM |  | > 100 µM |  | > 100 µM |
| COc1cnc2c(c1)C(=O)c1c-2n(CCCN2CCC(O)CC2)c(=O)c2cc(Cl)ccc12 | 0.0903 µM | 1.5 µM | 0.279 µM | 1.71 µM | 14.1 µM | 37.5 µM | 0.248 µM | 1.74 µM | 0.0371 µM | 1.27 µM | 0.11 µM | 2.02 µM | 0.347 µM | 1.72 µM | 0.211 µM | 2.34 µM | 0.165 µM | 1.67 µM |  |  |

— PubChem BioAssay (NCI)
